EP0080819A1, “11-0-Alkylerythromycin A derivatives” (TAISHO PHARMACEUTICAL CO. LTD, priority 1981, dated 1983)

System: Staphylococcus aureus Smith No. 4
Test: In vivo antibacterial activity (mouse protection test, number of surviving mice)
Settings: oral, one hour after inoculation, male ddY mice, groups of 20, 10^7 cells per mouse, i.p., living mice for seven days after administration
Description: Male ddY mice weighing 20 - 23 g in groups 20 each were inoculated with Staphylococcus aureus Smith No. 4 (10^7 cells per mouse, i.p.). Erythromycin A was used as a control, the compound of formula I wherein R is methyl group("compound 1") was administered orally at one hour after inoculation, and the number of living mice for seven days after administration was calculated to determine the in vivo antibacterial activity.

Row | Structure (SMILES) | In vivo Antibacterial Activity [The Number of Surviving Mice] (dose 0.5 mg/mouse) | In vivo Antibacterial Activity [The Number of Surviving Mice] (dose 1 mg/mouse) | In vivo Antibacterial Activity [The Number of Surviving Mice] (dose 2 mg/mouse) | In vivo Antibacterial Activity [The Number of Surviving Mice] (dose 4 mg/mouse)
1 | CC[C@H]1OC(=O)[C@H](C)[C@@H](O[C@H]2C[C@@](C)(OC)[C@@H](O)[C@H](C)O2)[C@H](C)[C@@H](O[C@@H]2O[C@H](C)C[C@H](N(C)C)[C@H]2O)[C@](C)(O)C[C@@H](C)C(=O)[C@H](C)[C@@H](OC)[C@]1(C)O [Compound 1, 11-0-methylerythromycin A] | 6 | 12 | 20 | 20
2 | CC[C@H]1OC(=O)[C@H](C)[C@@H](O[C@H]2C[C@@](C)(OC)[C@@H](O)[C@H](C)O2)[C@H](C)[C@@H](O[C@@H]2O[C@H](C)C[C@H](N(C)C)[C@H]2O)[C@](C)(O)C[C@@H](C)C(=O)[C@H](C)[C@@H](O)[C@]1(C)O [Erythromycin A] | 4 | 8 | 18 | 20
